Assay results taken from patent US20130029978A1, “NOVEL ARYL UREA DERIVATIVE” (MOCHIDA PHARMACEUTICAL CO., LTD., priority 2009, published 2013).

How the values were obtained:
FAAH [1] = target: T1, FAAH (Homo sapiens, UniProt O00519); experiment: In vitro FAAH inhibitory activity using U-937 microsomal fraction (AAMCA substrate, fluorescence); format: biochemical; conditions: 6 μg/well, 120 min incubation at room temperature, read-out: FAAH Inhibitory Activity IC50 U-937 microsome
T1 construct: the U-937 microsomal fraction (final concentration of 6 μg/well) prepared in (1); endogenous in cells; host or cells: U-937 cells (microsomal fraction)
T1 sequence (O00519 1-579): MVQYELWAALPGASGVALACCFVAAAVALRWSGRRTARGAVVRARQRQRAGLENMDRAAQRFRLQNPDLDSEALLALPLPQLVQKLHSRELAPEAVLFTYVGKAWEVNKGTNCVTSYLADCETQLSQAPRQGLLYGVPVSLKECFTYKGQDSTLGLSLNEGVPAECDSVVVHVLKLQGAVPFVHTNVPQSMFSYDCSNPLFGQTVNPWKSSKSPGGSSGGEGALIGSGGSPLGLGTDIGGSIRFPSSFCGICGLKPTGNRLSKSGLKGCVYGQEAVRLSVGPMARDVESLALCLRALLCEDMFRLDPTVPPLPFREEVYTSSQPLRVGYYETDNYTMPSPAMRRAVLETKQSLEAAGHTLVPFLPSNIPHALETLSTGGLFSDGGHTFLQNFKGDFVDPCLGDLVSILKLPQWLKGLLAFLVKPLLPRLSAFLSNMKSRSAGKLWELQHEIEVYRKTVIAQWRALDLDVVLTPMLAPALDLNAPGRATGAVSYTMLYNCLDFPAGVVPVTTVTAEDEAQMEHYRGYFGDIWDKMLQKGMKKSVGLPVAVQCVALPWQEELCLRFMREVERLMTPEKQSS
Method: The cultured U-937 cells were harvested, and 0.33-fold volume of buffer solution (50 mmol/L HEPES-NaOH (pH 7.4), 1 mmol/L EDTA, Complete EDTA-free (Roche Diagnostics)) was added to the cells, which was suspended and homogenized. After ultrasonication, the cells were further homogenized and centrifuged (600 g, 10 mins., 4° C.) to collect the supernatant. The supernatant collected was again centrifuged (12000 g, 20 mins., 4° C.), and the supernatant was ultracentrifuged (100000 g, 60 mins., 4° C.) to collect the precipitates. The precipitates were suspended in a buffer solution (50 mmol/L HEPES-NaOH (pH 7.4), 1 mmol/L EDTA) of 5-fold volume with respect to the wet weight of the precipitates to quantify the protein level with the BCA Protein Assay (PIERCE).
(§1) In a 384 well plate (Corning), were added the dilutions of compounds to be tested in various concentrations with 30 μL of a buffer solution (50 mmol/L HEPES (pH 7.4), 1 mmol/L EDTA, 0.1% bovine serum albumin) and the U-937 microsomal fraction (final concentration of 6 μg/well) prepared in (1) or the rat brain microsomal fraction (final concentration of 4 μg/well) prepared in (2), followed by preincubation for 5 minutes at room temperature. AAMCA (SIGMA, (final concentration of 4 mmol/L) as a substrate was added thereto, and the U-937 microsomal fraction was incubated for 120 minutes and the rat brain microsomal fraction for 30 minutes, at room temperature. Before and after the incubation, fluorescence counts were measured using EnVision 2000 (Perkin Elmer) at an excitation wavelength of 355 nm with an emission wavelength of 460 nm to calculate the difference. The count of the well added with the solvent in place of the compound tested and the count of the well added with no microsome were made 0% and 100%, respectively, and the inhibitory activity of each compound tested was determined.
(§2) The FAAH inhibitory activity of the test compound was expressed by IC50 value. The compound of the present invention showing the IC50 value smaller than 0.1 μmol/L, the compound showing the IC50 value not smaller than 0.1 μmol/L and smaller than 1 μmol/L and the compound showing the IC50 value not smaller than 1 μmol/L were designated as +++, ++ and +, respectively, which are shown in TABLE 1.

FAAH [2] = target: T2, FAAH (Rattus norvegicus, UniProt P97612); experiment: In vitro FAAH inhibitory activity using rat brain microsomal fraction (AAMCA substrate, fluorescence); format: biochemical; conditions: 4 μg/well, 30 min incubation at room temperature, read-out: FAAH Inhibitory Activity IC50 Rat brain microsome
T2 construct: the rat brain microsomal fraction (final concentration of 4 μg/well) prepared in (2); from tissue; host or cells: brain of male Sprague-Dawley rats (microsomal fraction)
T2 sequence (P97612 1-579): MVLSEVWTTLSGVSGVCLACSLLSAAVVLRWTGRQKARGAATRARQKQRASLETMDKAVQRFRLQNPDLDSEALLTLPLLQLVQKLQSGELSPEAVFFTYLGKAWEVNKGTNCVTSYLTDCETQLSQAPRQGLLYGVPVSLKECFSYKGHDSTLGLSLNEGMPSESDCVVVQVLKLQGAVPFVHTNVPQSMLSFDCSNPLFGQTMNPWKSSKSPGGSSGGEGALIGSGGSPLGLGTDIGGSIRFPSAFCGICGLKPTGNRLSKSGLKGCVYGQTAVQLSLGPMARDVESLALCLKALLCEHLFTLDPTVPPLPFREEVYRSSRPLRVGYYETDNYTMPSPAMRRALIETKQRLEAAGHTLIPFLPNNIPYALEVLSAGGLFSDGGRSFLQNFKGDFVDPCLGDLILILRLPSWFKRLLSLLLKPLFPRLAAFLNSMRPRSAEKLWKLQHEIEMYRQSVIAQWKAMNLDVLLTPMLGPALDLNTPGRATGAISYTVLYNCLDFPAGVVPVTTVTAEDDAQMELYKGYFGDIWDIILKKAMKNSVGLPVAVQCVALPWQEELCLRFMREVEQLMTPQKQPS
Method: Male Sprague-Dawley (SD) rats of 10 weeks old were sacrificed by decapitation and the brains were removed. To the brains was added a buffer solution (50 mmol/L HEPES (pH 8.0), 1 mmol/L EDTA, 0.32 mol/L sucrose, Complete EDTA-free (Roche Diagnostics)) of 5-fold volume with respect to the brain wet weight, which was homogenized in a Potter homogenizer. The homogenate was centrifuged (9000 g, 10 mins., 4° C.) to collect the supernatant. The supernatant was further ultracentrifuged (105000 g, 60 mins., 4° C.) to collect the precipitates. The precipitates were suspended in a buffer solution (50 mmol/L HEPES (pH 8.0), 1 mmol/L EDTA) of ¼ volume with respect to the wet weight of the precipitates to quantify the protein level with the BCA Protein Assay (PIERCE).
as §1, §2

IC50 (FAAH [1])	IC50 (FAAH [2])	Compound
100 to 1000 nM	< 100 nM	O=C(Nc1cccnn1)N1CCN(C2CCOc3cc(C(F)(F)F)c(F)cc32)CC1 (centres unmarked) [Example 12, N-Pyridazin-3-yl-4-[6-fluoro-7-(trifluoromethyl)-3,4-dihydro-2H-1-benzopyran-4-yl]piperazine-1-carboxamide]
100 to 1000 nM	100 to 1000 nM	O=C(Nc1cccnn1)N1CCN(C2CCOc3ccc(Oc4ccc(C(F)(F)F)cn4)cc32)CC1 (centres unmarked) [Example 5, N-Pyridazin-3-yl-4-[6-[[5-(trifluoromethyl)-2-pyridinyl]oxy]-3,4-dihydro-2H-1-benzopyran-4-yl]piperazine-1-carboxamide]
> 1000 nM	> 1000 nM	O=C(Nc1nccs1)N1CCN(C2CCOc3cc(C(F)(F)F)ccc32)CC1 (centres unmarked) [Example 22, N-(1,3-Thiazol-2-yl)-4-[7-(trifluoromethyl)-3,4-dihydro-2H-1-benzopyran-4-yl]piper azine-1-carboxamide]
< 100 nM	< 100 nM	O=C(Nc1cccnc1)N1CCN(C2CCOc3c2ccc(F)c3F)CC1 (centres unmarked) [Example 35, 4-(7,8-Difluoro-3,4-dihydro-2H-chromen-4-yl)-N-(pyridine-3-yl)piperazine-1-carboxamide]
100 to 1000 nM	100 to 1000 nM	O=C(Nc1cccnn1)N1CCN(C2CCCOc3cc(C(F)(F)F)ccc32)CC1 (centres unmarked) [Example 10, N-Pyridazin-3-yl-4-[8-(trifluoromethyl)-2,3,4,5-tetrahydrobenz-1-oxepin-5-yl]piperazine-1-carboxamide]
< 100 nM	< 100 nM	O=C(Nc1cccnc1)N1CCN(C2CCOc3cc(C(F)(F)F)ccc32)CC1 (centres unmarked) [Example 17, N-Pyridine-3-yl-4-[7-(trifluoromethyl)-3,4-dihydro-2H-1-benzopyran-4-yl]piperazine-1-carboxamide]
< 100 nM	100 to 1000 nM	Cc1ccc(NC(=O)N2CCN(C3CCOc4cc(C(F)(F)F)ccc43)CC2)cn1 (centres unmarked) [Example 18, N-(6-Methyl-pyridine-3-yl)-4-[7-(trifluoromethyl)-3,4-dihydro-2H-1-benzopyran-4-yl]piperazine-1-carboxamide]
> 1000 nM	100 to 1000 nM	CC1(C)CC(N2CCN(C(=O)Nc3cccnn3)CC2)c2ccc(C(F)(F)F)cc2O1 (centres unmarked) [Example 9, N-Pyridazin-3-yl-4-[2,2-dimethyl-7-(trifluoromethyl)-3,4-dihydro-2H-1-benzopyran-4-yl]piperazine-1-carboxamide]
< 100 nM	< 100 nM	O=C(Nc1cnccn1)N1CCN(C2CCOc3cc(C(F)(F)F)ccc32)CC1 (centres unmarked) [Example 52, N-(Pyrazin-2-yl)-4-[7-(trifluoromethyl)-3,4-dihydro-2H-chromen-4-yl]piperazine-1-carboxamide]
100 to 1000 nM	100 to 1000 nM	O=C(Nc1ccccc1)N1CCN(C2CCOc3cc(C(F)(F)F)ccc32)C(=O)C1 (centres unmarked) [Example 15, N-Phenyl-3-yl-4-[7-(trifluoromethyl)-3,4-dihydro-2H-1-benzopyran-4-yl]-3-oxo-piperazine-1-carboxamide]
< 100 nM	100 to 1000 nM	O=C(Nc1cccnn1)N1CCC(N2CCOc3cc(C(F)(F)F)ccc32)CC1 [Example 24, N-Pyridazin-3-yl-4-[7-(trifluoromethyl)-2,3-dihydro-1,4-benzoxazin-4-yl]piperidine-1-carboxamide]
100 to 1000 nM	> 1000 nM	O=C(Nc1ccccc1)N1CCC(c2noc3cc(F)ccc23)CC1 [Example 1, N-Phenyl-4-(6-fluoro-1,2-benzisoxazo-3-yl)piperidine-1-carboxamide]

Compound	IC50 (FAAH [1])	IC50 (FAAH [2])
N-(6-Methoxypyridazin-2-yl)-4-[7-(trifluoromethyl)-3,4-dihydro-2H-1-benzopyran-4-yl]piperazine-1-carboxamide [Example 21]	100 to 1000 nM	100 to 1000 nM
